Data reported in US10106778B2, “Selective targeting of cancer stem cells” (Whitehead Institute for Biomedical Research, priority 2012, dated 2018).

Experiments:
Type in all cases: cell-based, human
[1] = test system: NAMEC-Tom-Ras and HMLE-GFP-Ras cells; assay: Co-mixed NAMEC-Tom-Ras (CSC-enriched) and HMLE-GFP-Ras (CSC-depleted) cells, kinase inhibition, FACS; conditions: dose response, co-mixed cells
Experimental: (§1) Kinase inhibitors and other chemical compounds were obtained from various sources listed below. These were dissolved or diluted in DMSO. To set up the screen, 75,000 NAMEC-Tom and 15,000 HMLE-GFP cells were seeded into each well of a 6-well tissue culture plate. The following day, spent media was replaced with 3 ml of fresh media. Inhibitors were added to achieve the desired range of concentrations. For control treatment, DMSO was added. Fresh media containing inhibitors were replaced daily during the six day period. For analysis, cells were trypsinized with 1 ml 0.15% trypsin, diluted with 1 ml serum-containing media and fixed with 1 ml of 4% paraformaldehyde. FACS analysis was performed to analyze the proportion of surviving cells relative to DMSO-treated control for NAMEC-Tom or HMLE-GFP cells. To test the effects of these inhibitors on CSCs and non-CSCs, NAMEC-Ras-Tom and […] were used in similar co-mixed experiments.
as §1, with “experiments. To assess the fraction of cells undergoing apoptosis, cells were exposure to agents for three days without fresh media and then analyzed with Annexin V-APC (BD Biosciences).” for “experiments.”
Having determined that NAMEC-Ras cells were enriched for CSCs, we mixed NAMEC-Ras cells labeled with tdTomato (NAMEC-Tom-Ras) and HMLE-Ras cells labeled with GFP (HMLE-GFP-Ras) and re-tested the effects of kinase inhibition as described above. […] In addition, these NAMEC-Tom-Ras cells were more resistant to paclitaxel (11.3 fold) and staurosporine (32.8 fold) than the corresponding HMLE-GFP-Ras cells used as controls (FIG. 3C).

p-PLCγ1^Y783 = assay: Western blot of PLCγ1 phosphorylation in NAMECs; conditions: 5 μM, within 30 min
Experimental: (§2) To obtain protein extracts, cells were scraped from culture dishes in chilled PBS, centrifuged at 450×g for 4 min at 4° C., washed again in PBS, and incubated for 20 min in ice cold lysis buffer containing freshly added protease inhibitors (0.5 mM phenylmethylsulfonyl fluoride, 10 μg/ml leupeptin, 2 μg/ml aprotonin). Lysates were cleared by centrifugation at 12,100×g, 4° C. for 10 min and the supernatant was snap frozen in liquid nitrogen. Protein concentrations were determined using Bradford Dye (Bio-Rad). 30 μg total protein was separated by SDS-PAGE on NuPAge gels (Invitrogen), and transferred to Hybond-P PVDF membrane (GE Healthcare). The membrane was probed with specific primary antibodies and antibody-protein complex detected by HRP-conjugated antibodies and ECL-Plus (Amersham Biosciences).
(§3) Protein levels of both phospholipase Cγ1 and 2 (PLCγ1 and PLCγ2), which transduce signals from PDGFRα/β to PKCα, were also elevated in these cells by an average of 4.57 and 2.38-fold, respectively (FIG. 4E). To test whether PLCγ is being activated by PDGFR through phosphorylation, NAMECs were treated with PDGFR inhibitors.

p-PLCγ2^Y1217 = assay: Western blot of PLCγ2 phosphorylation in NAMECs; conditions: 5 μM, within 30 min
Experimental: as §2, §3

[2] = test system: p-PKCα^S497 and p-PKCα^T638; assay: Western blot of PKCα phosphorylation in NAMECs
Experimental: as §2
We subsequently sought to determine whether PKCα activation was directly dependent upon PDGFR-PLCγ. Exposure of NAMECs to a PLCγ inhibitor (U73122) reduced active p-PKCα^S497 and p-PKCα^T638 by 1.3 and 3.1-fold respectively within 30 min, and 6.3 and 4.2-fold respectively by 60 min (FIG. 13C); total PKCα level was unchanged (FIG. 13C). The inhibition of PDGFR in NAMECs, similarly, led to a loss of PKCα phosphorylation (p-PKCα^S497: 2.8 fold, p-PKCα^T638: 5.9 fold), as illustrated once again by the loss of active p-PKCα^S497 and p-PKCα^T638 within 30 min, while total PKCα remained constant (FIG. 13D).

p-FRA1^S265 = assay: Western blot of FRA1 phosphorylation in NAMECs; conditions: applied to NAMECs for 30 min
Experimental: as §2
FRA1 is a member of the Fos family of transcription factors, which is also comprised of c-Fos, FosB and Fra2. Together with the Jun family of transcription factors composed of c-Jun, JunB and JunD, individual members of the Fos and Jun family associate with one another to form heterodimeric activator protein-1 (AP-1) complexes that bind and transcriptionally regulate target gene expression when phosphorylated (Eferl and Wagner, 2003).
We assessed whether the observed increased p-FRA1 activity in the mesenchymal cells could be further augmented by elevated ERK signaling during EMT. Accordingly, inhibition of ERK1/2 phosphorylation with a MEK inhibitor was able to decrease p-FRA1^S265 levels by 65% but not the levels of total FRA1 or p-c-Jun (FIG. 5G), confirming that ERK1/2 signaling promoted p-FRA1 activity.

[3] = test system: p-B-Raf, p-c-Raf, p-MEK1/2 and p-ERK1/2; assay: Western blot of MAPK/ERK signaling in NAMECs; conditions: 30 min
Experimental: as §2
We assessed whether mesenchymal cells contained higher Ras expression or activated Ras. […] We assessed whether enhanced ERK signaling in the mesenchymal cell state was primarily mediated through the activated PDGFR and PKCα signaling cascade, rather than through activation via a Ras-Raf pathway. To test this, we exposed NAMECs to PKCα-specific inhibitors for 30 min. This reduced p-B-Raf and p-c-Raf expression, and led to the loss of p-MEK1/2 and p-ERK1/2 (FIG. 5F). […] Therefore, the enhanced activity of ERK signaling during EMT was, in part, conferred by signaling through PDGFR and PKCα.

In the case of `COc1cc2ncnc(N3CCN(C(=O)Nc4ccc(Oc5ccccc5)cc4)CC3)c2cc1OC` [PDGFR Inh III], the “which cell type is more sensitive / selected against” value [1] is reported as “NAMEC-Ras-Tom cells were more sensitive”, the “effect on p-PLCγ1^Y783” value (p-PLCγ1^Y783) is reported as “reduced” and the “effect on p-PLCγ2^Y1217” value (p-PLCγ2^Y1217) is reported as “reduced”. For the same molecule, the “effect on PKCα phosphorylation” value [2] was “reduced phosphorylation of PKCα”, the “effect on phosphorylation of FRA1” value (p-FRA1^S265) was “blocked the phosphorylation of FRA1” and the “effect on phospho-proteins of ERK signaling” value [3] was “downregulation of B-Raf and C-Raf phosphorylation, and dampening ERK signaling”.
